Results on one compound are retold here after patent publication US6906042B2, “Micelles” (Eisai Co., Ltd., priority 2000, dated 2005).

SMILES strings stand for the structures. Where “and” joins values, the source holds several entries; their conditions need not be identical. Equal entries are not always repeated.

A short description of series [1]: Micelle hydrodynamic diameter of E5564 before lyophilization and after reconstitution, admixture and storage.
From the text: After lyophilization the micelles were reconstituted with water diluted in an aqueous dextrose solution (Table 2). […] (Table 2).
The nature of series [2]: E5564 micelle hydrodynamic diameter before and after simulated I.V. infusion using administration equipment (DLS). Particulars: simulated administration conditions using representative infusion equipment.
From the text: The following conditions apply to the data in Table 4: Microbore 60″ extension set with PVC free fluid path, No. V6212 (McGraw, Inc.); 3 cc syringe with Luer Lok, No. 309585 (Becton Dickenson); Injection site with Luer Lok, No. 2N1199 (Baxter); Needle, 20G 1, No. 305175 (Becton Dickenson); I.V. catheter, JELCO, No. 4050 (Johnson & Johnson Medical Inc.).
The nature of series [3]: Micelle hydrodynamic diameter of E5564 through NaOH dissolution, lactose phosphate buffer, freeze-drying and re-hydration. The settings on record: upon freeze-drying.
From the text: This solution was then combined with a lactose containing phosphate buffer solution to yield a solution pH of 7-8. […] This solution was then filtered through a 0.2 μm filter to render the solution sterile in the manner conventional to pharmaceutical manufacturing. The sterile solution was then filled into vials and freeze-dried.

In the case of `CCCCCC/C=C\CCCCCCCCCC(=O)N[C@H]1[C@H](OC[C@H]2O[C@H](OP(=O)(O)O)[C@H](NC(=O)CC(=O)CCCCCCCCCCC)[C@@H](OCCCCCCCCCC)[C@@H]2O)OC(COC)[C@@H](OP(=O)(O)O)[C@@H]1OCC[C@@H](CCCCCCC)OC` (stereo partly shown) [Compound E5564], the “micelle hydrodynamic diameter stability” value in series [1] ([…], or under refrigeration) is on record as “stable”; in series [2], “stable”; in series [3], “stable”. For the same compound, the “hydrodynamic diameter (nm)” value in series [1] (admixed with 5% dextrose solution (0.14 mg/mL), storage for 24 hours at 25° C.) was 8.1 nm; in series [1] (admixed with 5% dextrose solution (0.14 mg/mL), storage for 72 hours at 2-8° C.) it was 7.7 nm; in series [1] (immediately following admixture with 5% dextrose solution (0.14 mg/mL)), 7.7 nm and 6.8 nm; in series [1] (immediately following reconstitution (0.5 mg/mL)), 8.6 nm and 7.7 nm and 6.9 nm; in series [1] (reconstituted solution (0.5 mg/mL), storage for 24 hours at 25° C.), 8.2 nm; in series [1] (reconstituted solution (0.5 mg/mL), storage for 72 hours at 2-8° C.), 8.3 nm. In addition, the “hydrodynamic diameter (nm)” value in series [1] (reconstituted solution after storage of lyophilized drug product 6 months at 2-8° C.) is 7.5 nm; in series [1] (reconstituted solution after storage of lyophilized drug product 6 months at 25° C./60% RH) it was 7.3 nm and 7.2 nm; in series [1] (reconstituted solution, lyophilized drug product, initial), 8.6 nm and 7.7 nm and 6.9 nm; in series [1] (solutions prior to lyophilization), 7.6 nm and 7.4 nm and 7.9 nm.
